Data published in patent US4119719A, “Piperazine compounds” (Parcor, priority 1975, dated 1978).
Counter-ions that a name gives are not always drawn.

Key:
[1] = test system: carrageenin-induced oedema; experiment: Anti-inflammatory activity: localised carrageenin-induced oedema; type: in vivo; conditions: rat, 10 mg/kg oral (four administrations)
Procedure: A 1% carrageenin solution (0.1 ml) is injected into the metatarsal flexors of the right hind paw of the rat at time 0. The animals in the treated batch are also given by oral route, 10 mg/kg of the test derivative, one hour before, then at the same time as the injection of the phlogogenic agent, then one hour and 21/2 hours afterwards, respectively. The measurements taken with a Roch micrometer at time 0, then 1 hour, 2 hours, 3 hours and 5 hours after administration of the carrageenin make it possible to determine, as a function of time, the percentage anti-inflammatory activity compared with the control batch.

ovalbumin oedema = experiment: Anti-inflammatory activity: generalised ovalbumin oedema; type: in vivo; conditions: rat, 50 mg oral one hour before and at injection of ovalbumin
Procedure: The rat is given a simultaneous intraperitoneal injection of 1 ml of ovalbumin and 0.5 ml of a 1% aqueous solution of Evans blue. Moreover, 50 mg of the test derivative are administered orally to the animals of the test batches one hour before and at the same time as the injection of ovalbumin. The intensity of the phenomenon thus induced is given a mark from 1 to 5, depending on the progression of the inflammatory syndrome. Thus, the average oedematous intensity and the percentage reduction in the oedematous reaction, compared with the control, are determined.

[2] = LD50 /24 hours, intravenous route in mice (method of Miller and Tainter); conditions: mouse, in vivo, read-out: LD50 /24 hours/kg of body weight
Procedure: 1, 53 mg for derivative no. 2, 89 mg for derivative no. 3, 57 mg for derivative no. 4, 41 mg for derivative no. 5, 62 mg for derivative no. 6, 66 mg for derivative no. 7, 74 mg for derivative no. 8 and 100 mg for derivative no. 9.

[3] = test system: cholesterol level in the plasma; experiment: Hypocholesterolaemic activity: test using propyl thiouracil; type: in vivo; conditions: rats, 10 mg/kg orally, 11th day
Excerpt: (a) Test using propyl thiouracil ([…] and Coll., J. Pharmacol. Exper. Therap., 1963, 142, 132-136). […] On the 11th day of the experiment, blood samples are taken and the free cholesterol and total cholesterol are estimated.

[4] = test system: stretching movements induced by acetic acid; experiment: Analgesic activity: acetic acid stretching movements (method of Koster, Anderson and De Beer); type: in vivo; conditions: mice, 50 mg/kg oral thirty minutes before acetic acid; reduction in stretching movements in next thirty minutes
Procedure: The intraperitoneal injection of a dilute solution of acetic acid causes, in mice, repeated characteristic stretching movements under the effect of the pain. The oral administration of a dosage of 50 mg/kg of the test derivative, thirty minutes before the injection of acetic acid, reduces the number of movements in the next thirty minutes. In this way, the average number of stretching movements and the percentage analgesia obtained, corresponding to the percentage reduction in the number of stretching movements, compared with the controls, are determined.

livers and aortas = experiment: Rabbits kept on a hypercholesterolaemic diet: macroscopic examination of livers and aortas; type: in vivo; conditions: 10 mg/kg daily oral, end of experiment; for aortic atheromatous lesions: marked in intensity from 0 to 4; for fatty infiltrations of the liver: marked in size from 0 to 3
Procedure: (§1) (b) This study was carried out on rabbits kept on a hypercholesterolaemic diet. The rabbits are divided into batches of 40 animals; the control batch (A) receives no treatment, whereas the treated batches are given the medicines according to the invention. Thus, derivative no. 1 is administered to the animals in batch B, derivative no. 5 to those in batch C and derivative no. 7 to those in batch D, by oral route, daily, in dosage of 10 mg/kg. On the first day of the experiments and then every 15 days, for a period of 75 days, biological tests are carried out on all the animals, whereby the various elements which indicate dyslipaemia are determined: total cholesterol (T), esterified cholesterol (E), free cholesterol (L), esterification ratio (E/T), Kunkel phenol test (K1), Kunkel phenol test (K2), Burstein test with dextrane (B) and serum lipids (LS).
At the end of the experiment, all the animals are killed and autopsies are performed on them; macroscopic examinations of their livers and aortas are then carried out, and the fatty infiltrations of the liver are marked, in size, from 0 to 3 and the aortic atheromatous lesions are marked, in intensity, from 0 to 4.
(§2) The results, representing the average values determined with each batch, are assembled in the following Tables: […]

dyslipaemia = experiment: Hypocholesterolaemic activity: rabbits kept on a hypercholesterolaemic diet, biological tests of dyslipaemia; type: in vivo; design: total cholesterol (T) / esterified cholesterol (E) / free cholesterol (L) / Burstein test with dextrane (B) / serum lipids (LS): unit not given here; conditions: 10 mg/kg daily oral
Procedure: as §1, §2

SMILES | Percentage anti-inflammatory activity ([1]; after 1 hr) [%] | Percentage anti-inflammatory activity ([1]; after 2 hrs) [%] | Percentage anti-inflammatory activity ([1]; after 3 hrs) [%] | Percentage anti-inflammatory activity ([1]; after 5 hrs) [%] | Percentage reduction in oedematous reaction (ovalbumin oedema; 2nd hour) [%] | Percentage reduction in oedematous reaction (ovalbumin oedema; 3rd hour) [%] | LD50 at 24 h [2] [mg/kg] | Free cholesterol [3] [g/L] | Total cholesterol [3] [g/L] | average percentage of analgesia [4] [%] | aortic atheromatous lesions (livers and aortas) | fatty infiltrations of the liver (livers and aortas) | Burstein test with dextrane (B) (dyslipaemia; 1st Day) | Kunkel phenol test (K1) (dyslipaemia; 1st Day) | Kunkel phenol test (K2) (dyslipaemia; 1st Day) | esterification ratio (E/T) (dyslipaemia; 1st Day) | esterified cholesterol (E) (dyslipaemia; 1st Day) | free cholesterol (L) (dyslipaemia; 1st Day) | serum lipids (LS) (dyslipaemia; 1st Day) | total cholesterol (T) (dyslipaemia; 1st Day) | other results
COc1ccc(N2CCN(CCCN3CCCC3)CC2)cc1.Cl.Cl.Cl [Derivative no. 8, 1-(p-methoxyphenyl)-4-(3-pyrrolidino-propyl)-piperazine trihydrochloride] | 37 | 48 | 50 | 54 | 55 | 68 | 74 |  |  |  |  |  |  |  |  |  |  |  |  |  | 
CCCNCCCN1CCN(c2ccc(F)cc2)CC1 [Derivative no. 3, 1-(p-fluorophenyl)-4-(3-N-propylamino)propyl piperazine trihydrochloride] | 31 | 44 | 47 | 49 | 51 | 62 | 89 |  |  |  |  |  |  |  |  |  |  |  |  |  | 
CCCNCCCN1CCN(c2cccc(C(F)(F)F)c2)CC1 [Derivative no. 4, 1-(3-n-propylaminopropyl)-4-(m-trifluoro-methylphenyl)-piperazine dihydrochloride] | 39 | 51 | 53 | 58 | 49 | 61 | 57 |  |  |  |  |  |  |  |  |  |  |  |  |  | 
Clc1ccccc1N1CCN(CCCNC2CCCCC2)CC1 [Derivative no. 6, 4-(o-chlorophenyl)-1-(3-cyclohexylamino)-propylpiperazine trihydrochloride] |  |  |  |  |  |  | 62 | 0.15 | 0.53 | 61 |  |  |  |  |  |  |  |  |  |  | 
Cc1ccc(N2CCN(CCCNC3CCCCC3)CC2)cc1 [Derivative no. 1, 1-(3-cyclohexylamino-propyl)-4-p-tolyl-piperazine] |  |  |  |  |  |  | 25 |  |  | 65 | 1.4 | 0.9 | 11.1 | 8.2 | 13.7 | 0.50 | 0.28 | 0.27 | 1.95 | 0.55 | Burstein test with dextrane (B) (dyslipaemia; 30th Day): 21.2; Kunkel phenol test (K1) (dyslipaemia; 30th Day): 18.6; Kunkel phenol test (K2) (dyslipaemia; 30th Day): 25.4; esterification ratio (E/T) (dyslipaemia; 30th Day): 0.62; esterified cholesterol (E) (dyslipaemia; 30th Day): 0.92; free cholesterol (L) (dyslipaemia; 30th Day): 0.55; serum lipids (LS) (dyslipaemia; 30th Day): 2.91; total cholesterol (T) (dyslipaemia; 30th Day): 1.47; Burstein test with dextrane (B) (dyslipaemia; 75th Day): 35.8; Kunkel phenol test (K1) (dyslipaemia; 75th Day): 33.1; Kunkel phenol test (K2) (dyslipaemia; 75th Day): 41.9; esterification ratio (E/T) (dyslipaemia; 75th Day): 0.66; esterified cholesterol (E) (dyslipaemia; 75th Day): 1.80; free cholesterol (L) (dyslipaemia; 75th Day): 1.12; serum lipids (LS) (dyslipaemia; 75th Day): 4.03; total cholesterol (T) (dyslipaemia; 75th Day): 2.92
Clc1ccc(N2CCN(CCCN3CCOCC3)CC2)cc1 [Derivative no. 9, dimaleate] |  |  |  |  |  |  | 100 | 0.13 | 0.57 |  |  |  |  |  |  |  |  |  |  |  | 
Cl.Cl.Clc1ccc(N2CCN(CCCN3CCCC3)CC2)cc1 [Derivative no. 7, 1-(p-chlorophenyl)-4-(3-pyrrolidino-propyl)-piperazine dihydrochloride] |  |  |  |  |  |  | 66 | 0.12 | 0.50 | 69 | 1.4 | 1.2 | 10.6 | 8.1 | 13.2 | 0.51 | 0.27 | 0.25 | 1.98 | 0.52 | Burstein test with dextrane (B) (dyslipaemia; 30th Day): 21.2; Kunkel phenol test (K1) (dyslipaemia; 30th Day): 18.5; Kunkel phenol test (K2) (dyslipaemia; 30th Day): 25.2; esterification ratio (E/T) (dyslipaemia; 30th Day): 0.63; esterified cholesterol (E) (dyslipaemia; 30th Day): 0.96; free cholesterol (L) (dyslipaemia; 30th Day): 0.55; serum lipids (LS) (dyslipaemia; 30th Day): 2.88; total cholesterol (T) (dyslipaemia; 30th Day): 1.51; Burstein test with dextrane (B) (dyslipaemia; 75th Day): 35.6; Kunkel phenol test (K1) (dyslipaemia; 75th Day): 32.9; Kunkel phenol test (K2) (dyslipaemia; 75th Day): 50.0; esterification ratio (E/T) (dyslipaemia; 75th Day): 0.62; esterified cholesterol (E) (dyslipaemia; 75th Day): 1.83; free cholesterol (L) (dyslipaemia; 75th Day): 1.12; serum lipids (LS) (dyslipaemia; 75th Day): 3.97; total cholesterol (T) (dyslipaemia; 75th Day): 2.95
Clc1ccc(N2CCN(CCCN3CCCCC3)CC2)cc1 [Derivative no. 2, 4-p-chlorophenyl-1-(3-piperidinopropyl)-piperazine] |  |  |  |  |  |  | 53 | 0.13 | 0.62 | 72 |  |  |  |  |  |  |  |  |  |  | 
Cl.Cl.Cl.Clc1ccc(N2CCN(CCCNC3CCCCC3)CC2)cc1 [Derivative no. 5, 1-(3-cyclohexylamino-propyl)-4-(p-chlorophenyl)-piperazine trihydrochloride] |  |  |  |  |  |  | 41 | 0.16 | 0.55 |  | 1.2 | 1.0 | 10.9 | 8.1 | 12.6 | 0.49 | 0.28 | 0.29 | 2.1 | 0.57 | Burstein test with dextrane (B) (dyslipaemia; 30th Day): 21.1; Kunkel phenol test (K1) (dyslipaemia; 30th Day): 18.8; Kunkel phenol test (K2) (dyslipaemia; 30th Day): 25.0; esterification ratio (E/T) (dyslipaemia; 30th Day): 0.62; esterified cholesterol (E) (dyslipaemia; 30th Day): 0.91; free cholesterol (L) (dyslipaemia; 30th Day): 0.54; serum lipids (LS) (dyslipaemia; 30th Day): 2.85; total cholesterol (T) (dyslipaemia; 30th Day): 1.45; Burstein test with dextrane (B) (dyslipaemia; 75th Day): 35.9; Kunkel phenol test (K1) (dyslipaemia; 75th Day): 32.8; Kunkel phenol test (K2) (dyslipaemia; 75th Day): 41.8; esterification ratio (E/T) (dyslipaemia; 75th Day): 0.60; esterified cholesterol (E) (dyslipaemia; 75th Day): 1.78; free cholesterol (L) (dyslipaemia; 75th Day): 1.14; serum lipids (LS) (dyslipaemia; 75th Day): 4.1; total cholesterol (T) (dyslipaemia; 75th Day): 2.92
